Reference: PubChem BioAssay (NCI)
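Following 48 hours of exposure in 96-well plates, responses at five concentrations were used to interpolate endpoints linearly. Here, GI50 denotes the concentration required for 50% inhibition of growth. TGI: total growth inhibition.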

Assays:
Assay in all cases: NCI tumour cell line growth inhibition, 48 h
A549 NSCLC = system: A549 NSCLC
DU-145 prostate = system: DU-145 prostate
HCC-2998 colon = system: HCC-2998 colon
HT29 colon = system: HT29 colon
MALME-3M melanoma = system: MALME-3M melanoma
MDA-MB-435 = system: MDA-MB-435
NCI-H226 lung = system: NCI-H226 lung
NCI/ADR-RES ovarian = system: NCI/ADR-RES ovarian
RPMI-8226 leukemia = system: RPMI-8226 leukemia
SN12C renal = system: SN12C renal

| SMILES | GI50 (A549 NSCLC) | TGI (A549 NSCLC) | GI50 (DU-145 prostate) | TGI (DU-145 prostate) | GI50 (HCC-2998 colon) | TGI (HCC-2998 colon) | GI50 (HT29 colon) | TGI (HT29 colon) | GI50 (MALME-3M melanoma) | TGI (MALME-3M melanoma) | GI50 (MDA-MB-435) | TGI (MDA-MB-435) | GI50 (NCI-H226 lung) | TGI (NCI-H226 lung) | GI50 (NCI/ADR-RES ovarian) | TGI (NCI/ADR-RES ovarian) | GI50 (RPMI-8226 leukemia) | TGI (RPMI-8226 leukemia) | GI50 (SN12C renal) | TGI (SN12C renal) |
| --- | --- | --- | --- | --- | --- | --- | --- | --- | --- | --- | --- | --- | --- | --- | --- | --- | --- | --- | --- | --- |
| CC12OC(CC(O)C1O)n1c3ccccc3c3c4c(c5c6ccccc6n2c5c31)C(=O)N(CCN1CCOCC1)C4=O (stereo not given) | 0.4 µM | 2.35 µM | 0.949 µM | 6.1 µM | 3.25 µM | 10.6 µM | 0.968 µM | 6.83 µM | 0.921 µM | 5.27 µM | 1.46 µM | 7.56 µM | 1.11 µM | 4.01 µM | 1.82 µM | 8.31 µM | 1.55 µM | 9.87 µM | 1.02 µM | 6.12 µM |
| CC1(C)C(N2CCOCC2)CS1(=O)=O (stereo not given) | – | > 10 µM | – | > 10 µM | – | > 10 µM | – | > 10 µM | – | > 10 µM | – | > 10 µM | – | > 10 µM | – | > 10 µM | – | > 10 µM | – | > 10 µM |
| COc1ccc(Cn2cc(COc3cc(/C=C/C(=O)c4cc(OC)c(OC)c(OC)c4)ccc3OC)nn2)cc1 | 3.09 µM | 47.5 µM | 2.41 µM | 5.2 µM | 3.9 µM | > 100 µM | 3.65 µM | 9.68 µM | 25.7 µM | > 100 µM | 2.86 µM | > 100 µM | 2.91 µM | 83.1 µM | 3.49 µM | > 100 µM | 2.58 µM | 29.6 µM | 3.62 µM | > 100 µM |
| COC(=O)[C@]12CC[C@@H](C)[C@H](C)[C@@H]1C1=CC[C@@H]3[C@@]4(C)C(C=O)=C[C@@](C)(CO)[C@@H]4[C@H](O)C[C@@]3(C)[C@]1(C)CC2 | 4.15 µM | 14.6 µM | 4.77 µM | 16.5 µM | 3.13 µM | 9.45 µM | 2.44 µM | 7.54 µM | 2.62 µM | 10.4 µM | 3.29 µM | 13.4 µM | 13.9 µM | 46.9 µM | 4.12 µM | 34.6 µM | 2.44 µM | 7.74 µM | 4.85 µM | 17.3 µM |
| COc1cc(C(=O)/C=C/c2cc(-c3ccc4c(c3)OCO4)n[nH]2)cc(OC)c1OC | 2.13 µM | 6.23 µM | 2.92 µM | 9.16 µM | 2.02 µM | 4.07 µM | 2.45 µM | 6.53 µM | 1.85 µM | 4.69 µM | 2.28 µM | 5.8 µM | 1.52 µM | 4.25 µM | 2.99 µM | 12.3 µM | 0.506 µM | 2.53 µM | 2.26 µM | 6.28 µM |
| C#C[C@@]1(O)[C@@H](CO)O[C@@H](n2cc(Br)c3c(Cl)ccnc32)[C@@H]1O | 7.01 µM | > 100 µM | 0.454 µM | 4.79 µM | 2.89 µM | > 100 µM | 0.964 µM | > 100 µM | 32.3 µM | > 100 µM | 8.06 µM | > 100 µM | 1.08 µM | > 27 µM | 0.422 µM | 5.03 µM | 1.73 µM | 5.97 µM | 0.59 µM | > 100 µM |
| CCN(CC)CCNC(=O)c1cccc2c1-c1ccccc1C2=O | > 100 µM | > 100 µM | > 100 µM | > 100 µM | > 100 µM | > 100 µM | > 100 µM | > 100 µM | > 100 µM | > 100 µM | > 100 µM | > 100 µM | > 100 µM | > 100 µM | > 100 µM | > 100 µM | 66.3 µM | > 100 µM | > 100 µM | > 100 µM |
| CC(C)(C)[Si](C)(C)OCC1OC(n2cnc3c(=O)[nH]cnc32)CC1O (stereo not given) | – | > 100 µM | – | > 100 µM | – | > 100 µM | – | > 100 µM | – | > 100 µM | – | > 100 µM | – | > 100 µM | – | > 100 µM | – | > 100 µM | – | > 100 µM |
| CN1CCN(CCCNC(=O)c2c3c(n4ccccc24)C(=O)c2ncccc2C3=O)CC1 | 1.26 µM | 5.48 µM | 1.6 µM | 9.37 µM | 1.04 µM | 4.07 µM | 0.612 µM | 2.96 µM | 0.376 µM | 0.99 µM | 0.295 µM | 0.619 µM | 2.67 µM | 14.1 µM | 12 µM | 64.6 µM | 3.02 µM | > 24.4 µM | 1.42 µM | 3.61 µM |
| O=C(/C=C/c1ccccc1)c1cccc2ccccc12 | 2.96 µM | 10.3 µM | 3.63 µM | 13 µM | 2.65 µM | 6.81 µM | 3.69 µM | 12.9 µM | 6.12 µM | 22.4 µM | 2.64 µM | 14.7 µM | 1.99 µM | 6.32 µM | 3.27 µM | 19.6 µM | 1.93 µM | 5.86 µM | 4.29 µM | 15.4 µM |
| Cc1ccc(/C=N/NC(=O)c2ccccc2Oc2ccccc2)o1 | 43.5 µM | > 100 µM | 73.2 µM | > 100 µM | 65.3 µM | > 100 µM | 63.8 µM | > 100 µM | 36.8 µM | > 100 µM | 34.6 µM | > 100 µM | 39.1 µM | > 100 µM | 25.9 µM | > 100 µM | 23.8 µM | > 88.4 µM | 32.9 µM | > 100 µM |
